Data on six compounds can be found in PubChem BioAssay (NCI).

Structures are written as SMILES.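 Exposure lasted 48 hours, with cells grown in 96-well plates and compounds tested at five concentrations. The concentration for 50% growth inhibition is given as GI50. TGI denotes the concentration required for complete inhibition of growth.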 Some results are limits rather than exact numbers.

Some test systems named below: SF-268 CNS; HL-60(TB) leukemia; OVCAR-3 ovarian; UACC-257 melanoma; LOX IMVI melanoma; SF-539 CNS; K-562 leukemia; TK-10 renal; HOP-92 NSCLC.
Holding throughout (test): NCI anticancer screen, dose series, 48 h

As for `CC(=O)[CH-]C(=O)c1ccccc1.CC(=O)[CH-]C(=O)c1ccccc1.[O-]c1ccc(O)cc1.[O-]c1ccc(O)cc1.[Ti+4]`, the GI50 with SF-268 CNS was 14 µM; in the assay with HL-60(TB) leukemia, 3.71 µM; in the assay with OVCAR-3 ovarian it was 13.9 µM; with UACC-257 melanoma, 21.5 µM; in the assay on LOX IMVI melanoma, 14.3 µM; with SF-539 CNS, 11.7 µM. Moreover, the values for the GI50 in the assay with K-562 leukemia, in the assay on TK-10 renal and in the assay on HOP-92 NSCLC were 15.4 µM, 27.7 µM and 14.1 µM, respectively. Also, the TGI in the assay with SF-268 CNS worked out at 33.9 µM; in the assay with HL-60(TB) leukemia, 30.6 µM; in the assay on OVCAR-3 ovarian, 27.2 µM; with UACC-257 melanoma, 70.7 µM; in the assay on LOX IMVI melanoma it was 27.3 µM; with SF-539 CNS, 24.1 µM. The TGI was 76 µM in the assay with K-562 leukemia, 59.2 µM in the assay on TK-10 renal and 28.9 µM in the assay on HOP-92 NSCLC.

For `CN1CCN(c2ccc(NC3=C(Cl)C(=O)c4ncccc4C3=O)cc2C(F)(F)F)CC1`, the GI50 was 3.3 µM in the assay on SF-268 CNS; 1.79 µM with HL-60(TB) leukemia; 0.297 µM in the assay with OVCAR-3 ovarian; 1.62 µM with UACC-257 melanoma; 1.53 µM in the assay on LOX IMVI melanoma; 1.74 µM in the assay with SF-539 CNS. Further, the figures for the GI50 with K-562 leukemia, in the assay on TK-10 renal and in the assay with HOP-92 NSCLC were 0.435 µM, 1.92 µM and 1.58 µM, respectively. The TGI in the assay on SF-268 CNS was 14 µM; in the assay on HL-60(TB) leukemia it was 4.73 µM; in the assay with OVCAR-3 ovarian, 1.11 µM; with UACC-257 melanoma, 3.09 µM; in the assay on LOX IMVI melanoma it was 2.94 µM; with SF-539 CNS it was 3.53 µM. Besides, the results for the TGI in the assay with K-562 leukemia, with TK-10 renal and in the assay with HOP-92 NSCLC were above 100 µM, 3.45 µM and 3.03 µM, respectively.

For `COc1ccc(/C=C2/CCOC2=O)cc1`, the GI50 in the assay on SF-268 CNS, in the assay on HL-60(TB) leukemia, with OVCAR-3 ovarian, with UACC-257 melanoma, in the assay with LOX IMVI melanoma and in the assay on SF-539 CNS was above 100 µM in each case. In addition, the GI50 with K-562 leukemia, in the assay with TK-10 renal and in the assay with HOP-92 NSCLC was above 100 µM in each case. Besides, the TGI with SF-268 CNS, in the assay with HL-60(TB) leukemia, in the assay with OVCAR-3 ovarian, in the assay on UACC-257 melanoma, in the assay with LOX IMVI melanoma and in the assay with SF-539 CNS was above 100 µM each time. Further, the TGI in the assay on K-562 leukemia, in the assay on TK-10 renal and in the assay with HOP-92 NSCLC was above 100 µM each time.

In the case of `COc1cc(C)c(N(C)C(=O)CN(C)C)cc1Nc1nc(Nc2cccc(F)c2C(N)=O)c2cc[nH]c2n1`, the GI50 in the assay with SF-268 CNS was above 25 µM; in the assay on HL-60(TB) leukemia, 3.2 µM; in the assay on OVCAR-3 ovarian it was above 25 µM; in the assay on UACC-257 melanoma, above 15.1 µM; with LOX IMVI melanoma it was 24.6 µM; in the assay on SF-539 CNS, above 25 µM. The figures for the GI50 with K-562 leukemia, in the assay on TK-10 renal and with HOP-92 NSCLC were 18.1 µM, above 22 µM and 0.645 µM, respectively. In addition, the TGI with SF-268 CNS, in the assay on HL-60(TB) leukemia, in the assay on OVCAR-3 ovarian, with UACC-257 melanoma, in the assay with LOX IMVI melanoma and in the assay on SF-539 CNS was above 25 µM throughout. Moreover, the TGI with K-562 leukemia was above 25 µM; with TK-10 renal, above 25 µM; in the assay with HOP-92 NSCLC, 16.2 µM.

Regarding `O=c1c2ccccc2c(C=NCCNCCO)c2oc3ccccc3n12`, the GI50 in the assay with SF-268 CNS was 3.63 µM; in the assay with HL-60(TB) leukemia it was 4.63 µM; with OVCAR-3 ovarian it was 11.7 µM; in the assay with UACC-257 melanoma, 12.1 µM; with LOX IMVI melanoma it was 5.83 µM; in the assay with SF-539 CNS it was 3.51 µM. Moreover, the results for the GI50 in the assay with K-562 leukemia, in the assay with TK-10 renal and with HOP-92 NSCLC were 4.31 µM, 2.73 µM and 11.7 µM, respectively. Also, the TGI came out at 15.8 µM with SF-268 CNS; 20.7 µM in the assay with HL-60(TB) leukemia; 24 µM with OVCAR-3 ovarian; 26.7 µM in the assay with UACC-257 melanoma; 18.4 µM in the assay on LOX IMVI melanoma; 12.2 µM in the assay with SF-539 CNS. Further, the TGI with K-562 leukemia is 16.4 µM; in the assay on TK-10 renal, 9.61 µM; with HOP-92 NSCLC it was 26.9 µM.

Consider `COc1cccc2c1C(=O)c1c(O)c3c(c(O)c1C2=O)C[C@@](O)(C(=O)COC(=O)c1cccnc1)C[C@@H]3OC1CC(N)C(O)C(C)O1` (stereo partly drawn), for which the GI50 is 0.155 µM in the assay with SF-268 CNS; 0.146 µM with HL-60(TB) leukemia; 0.287 µM in the assay with OVCAR-3 ovarian; 0.172 µM in the assay with UACC-257 melanoma; 0.0443 µM in the assay with LOX IMVI melanoma; 0.0744 µM in the assay with SF-539 CNS. Besides, the GI50 with K-562 leukemia was 0.15 µM; in the assay with TK-10 renal, 0.149 µM; with HOP-92 NSCLC, 0.0859 µM. Also, the TGI was found to be 1.53 µM with SF-268 CNS; 1.64 µM in the assay with HL-60(TB) leukemia; 2.52 µM in the assay on OVCAR-3 ovarian; 0.557 µM in the assay with UACC-257 melanoma; 0.372 µM in the assay with LOX IMVI melanoma; 0.673 µM in the assay with SF-539 CNS. Moreover, the results for the TGI in the assay with K-562 leukemia, in the assay on TK-10 renal and with HOP-92 NSCLC were 2.75 µM, 0.845 µM and 0.737 µM, respectively.
